Assay results: patent publication US7125958B1, “Malaria polypeptides” (priority 1997, dated 2006)
Entries after “also recorded” stand apart in the source; their conditions may differ. Read-outs that look alike come from different tables or passages of the source.

Columns and labels:
[1] = tested on: FCR3S1 rosettes; experiment: Rosette disruption assay, laboratory strain FCR3S1; type: cell-based, Plasmodium falciparum; conditions: for reduction of rosette disruption efficiency compared to native heparin: modified heparin; for rosette disrupting effect of heparin disaccharides: not shown; for rosette reversion by disaccharide: at 45 mM; for sensitivity of FCR3S1 rosettes to the compound: 30 minutes at 37° C.
Text: (§1) Parasites and rosetting—Two distinct highly resetting P. Falciparum laboratory stains were used: FCR3S1 (previously named R^+PA1) and TM 284 (isolated in Thailand, 1990). Parasites were cultivated according to standard procedures (Udomsangpetch et al. 1989). Field isolates were obtained from patients attending the Albert Schweitzer Hospital, Lambaréné, Gabon between April and June 1996. […] A venous or capillary blood sample was taken after patients or parents informed consent. Blood was washed three times with RPMI and cultivated according to standard procedures (Udomsangpetch et al. 1989). Assessment for parasite growth and resetting was made every 6–8 hours using a Leitz UV-light microscope. Briefly, an aliquot of parasite culture was mixed with a small amount of acridine orange and the sample was analyzed. Assays were performed on rosetting isolates when the majority of parasites in culture had reached the trophozoite stage. The resetting rate was expressed as the number of infected erythrocytes in rosettes relative to the total number of late stage infected erythrocytes. Three hundred infected cells were counted. Parasitemia was calculated as the number of infected erythrocytes relative to the number of uninfected erythrocytes.
(§2) For laboratory stains, parasite cultures with rosetting rates of 50–70% and parasitemia 5–8% were used Aliquots (12.5–25 μl) of parasite cultures were mixed with equal amounts of sulfated glycoconjugate compound in RPMI in a 96-well microtiter plate, at final concentrations indicated After incubation for 30 minutes at 37° C. assessment for resetting was made as described above. The resetting rate was compared to that of culture mixed with RPMI.

[2] = tested on: FCR3S1 rosetting; type: cell-based, Plasmodium falciparum; conditions: compared to mock treated control cultures
[3] = tested on: uninfected RBC rosette binding capacity; type: cell-based, Plasmodium falciparum; conditions: compared to non-treated RBC
[4] = tested on: TM 284 rosetting; type: cell-based, Plasmodium falciparum; conditions: compared to mock treated control cultures
[5] = tested on: FCR3S1.2 rosettes; experiment: Rosette disruption assay, FCR3S1.2; type: cell-based, Plasmodium falciparum; conditions: incubated with GAGs for 1 h at 37° C., compared to control culture
Experimental: FIG. 5. Effect of glycosaminoglycans (GAGS) on P. falciparum resetting. […] FCR3S1.2 cultures were incubated with GAGs for 1 h at 37° C. and compared to control culture. Results are the means and standard error of three separate experiments.
The assay was performed essentially as described (Carlson, J. and M. Wahlgren, 1992. Plasmodium falciparum erythrocytes resetting is mediated by promiscuous lectin-like interactions. J. Exp. Med., 176, 1311–1317). The recombinant fission proteins ([…] in PBS of DBL-1-GST or ATS-GST) were added to 25 μl aliquots of a ≈80% rosetting culture of FCR3S1.2 in a micro-titre plate. The mixtures were incubated for 30 min. at 37° C. after which the rosetting rate was scored and compared to mock treated controls after staining with acridine orange.

[6] = tested on: TM 284 rosettes; type: cell-based, Plasmodium falciparum
[7] = tested on: FCR3S1 rosettes; type: cell-based, Plasmodium falciparum
[8] = tested on: DBL-1-GST fusion protein (FCR3S1.2-PfEMP1); experiment: Heparin blocking assay: inhibition of DBL-1-GST binding to heparin-sepharose by GAGs; set-up: species or system Plasmodium falciparum; conditions: GAG titrated from 10 to 0.5 mg/ml, SDS-PAGE
Experimental: The potential binding of the fusion proteins to heparin was studied by mixing either DBL-1-GST, ATS-GST fusion protein or GST alone (20 μl, 150 μg/ml in PBS) with 20 μl of 50% heparin-sepharose (Pharmacia) and incubating for 5 min at room temperature in the absence of serum; binding to uncoupled sepharose was used as control. The heparin-sepharose and protein mixture was washed 3 times in large volumes of PBST buffer (PBS plus 0.05% Tween-20) before extracting bound proteins in loading-buffer for 10% SDS-PAGE. Inhibition of DBL-1-GST fission protein binding to heparin with heparin, heparan sulfate or chondroitin sulfate (Lövens Kemiske Fabrik, Denmark, more than 90% pure) was also tested. Twenty μl of 150 μg/ml DBL-1-GST fusion protein was mixed separately for 5 minutes with an equal volume of heparin, heparan sulfate, or chondroitin sulfate, titrated from 10 to 0.5 mg/ml, before the addition of heparin sepharose. The inhibitory activities were checked by SDS-PAGE.

[9] = tested on: TM 284 rosettes; experiment: Rosette disruption assay, laboratory strain TM 284; type: cell-based, Plasmodium falciparum; conditions: for sensitivity of TM 284 rosettes to the compound: relative to FCR3S1
Text: as §1, §2

[10] = tested on: rosettes of wild isolates; experiment: Rosette disruption assay, wild (patient) isolates; type: cell-based, Plasmodium falciparum; conditions: for relative effectiveness as rosette disrupter on the whole collection of wild isolates: thirtytwo patient isolates; for rosette disruption of wild / fresh isolates: both groups of isolates
Text: as §1, §2

[11] = tested on: DBL-1-GST fusion protein (FCR3S1.2-PfEMP1); experiment: Erythrocyte blocking assay: inhibition of DBL-1-GST binding to RBC by GAGs; type: cell-based, Plasmodium falciparum; conditions: GAG titrated from 20 to 8 mg/ml
Experimental: Ten-well immunofluorescence glass-slides were precoated with 10% poly-L-lysine in PBS for 30 min. Monolayers of RBC were made by addition of 20 μl of 0.5% 3× washed bloodgroup O Rh^+RBC in PBS to each well. Twenty μl DBL-1-GST, ATS-GST or GST alone (80 μg/ml) in PBS was added to the wells for 30 min. The DBL-1-GST fusion protein was in subsequent experiments incubated in the presence of heparin, heparan sulfate or chondroitin sulfate (titrated from 20 to 8 mg/ml) to study the inhibitory activity of each GAG. Slides were washed 3 times with PBS and the fusion protein-binding was detected with the biotin-labelled anti-GST mAb and an EXTRAVIDIN (a modified avidin) FITC conjugate (Sigma). The fluorescence was assessed in a Nikon Optiphot-2 UV microscope, using a ×10 ocular and an oil lens with a magnification of ×100.

[12] = tested on: rosettes of fresh P. falciparum-isolates; conditions: cited from earlier work

2-O-desulfated heparin
reduction of rosette disruption efficiency compared to native heparin [1]: ~10 fold

6-O-desulfated heparin
reduction of rosette disruption efficiency compared to native heparin [1]: ~10 fold

O=C(O)C1=C[C@H](O)[C@@H](OS(=O)(=O)O)[C@H](O[C@H]2[C@H](O)[C@@H](NS(=O)(=O)O)[C@@H](O)O[C@@H]2COS(=O)(=O)O)O1 [I-S, ΔHexA(2-OSO3)-GlcNSO3(6-OSO3)]
rosette disruption by disaccharide titrated against heparin ([1]; 30 mM disaccharide, preliminary experiment): disrupted to the same extent as with heparin at 1 mg/ml

N[C@H]1C(O)O[C@H](COS(=O)(=O)O)[C@@H](O[C@@H]2OC(C(=O)O)=C[C@H](O)[C@H]2O)[C@@H]1O (stereo partly shown) [II-H, ΔHexA-GlcN(6-OSO3)]
rosette disrupting effect of heparin disaccharides [1]: no rosette disrupting effect

NC1C(O)OC(CO)C(OC2OC(C(=O)O)=CC(O)C2OS(=O)(=O)O)C1O (stereo not shown) [III-H, ΔHexA(2-OSO3-GlcN)]
rosette disrupting effect of heparin disaccharides [1]: no rosette disrupting effect

CC(=O)NC1C(O)OC(CO)C(OC2OC(C(=O)O)=CC(O)C2O)C1O (stereo not shown) [IV-A, ΔHexA-ClcNAc]
rosette reversion by disaccharide [1]: completely lacked effect

N[C@H]1C(O)O[C@H](CO)[C@@H](O[C@@H]2OC(C(=O)O)=C[C@H](O)[C@H]2O)[C@@H]1O (stereo partly shown) [IV-H, ΔHexA-GlcN]
rosette disrupting effect of heparin disaccharides [1]: no rosette disrupting effect

O=C(O)C1=C[C@H](O)[C@@H](O)[C@H](O[C@H]2[C@H](O)[C@@H](NS(=O)(=O)O)C(O)O[C@@H]2CO)O1 (stereo partly shown) [IV-S, ΔHexA-GlcNSO3]
rosette reversion by disaccharide [1]: complete rosette reversion

CC(=O)N[C@H]1C(O)O[C@H](COS(=O)(=O)O)[C@@H](O)[C@@H]1O (stereo partly shown) [N-acetylated glucosamine with an O-sulfate ester at C-6]
rosette disrupting activity of monosaccharides [1]: Some activity

O=S(=O)(O)NC1C(O)OC(CO)C(O)C1O (stereo not shown) [N-sulfated galactosamine]
rosette disrupting activity of monosaccharides [1]: lacked rosette disrupting activity and none and does not

O=S(=O)(O)N[C@H]1C(O)O[C@H](CO)[C@@H](O)[C@@H]1O (stereo partly shown) [N-sulfated glucosamine]
rosette disrupting activity of monosaccharides [1]: total rosette disruption; also recorded: abolishes rosetting | rosette disrupting activity of monosaccharides ([1]; listed as N-sulfated mono-saccharide glucosamine): good anti-rosetting activity

[O-][I+3]([O-])([O-])O [Sodium periodate]
change in rosetting after treatment of whole cultures, FCR3S1 [2]: intermediate effect | decrease of rosette binding capacity of treated uninfected RBC [3]: 4 fold | change in rosetting after treatment of whole cultures, TM 284 [4]: intermediate effect

Chondroitin sulfate B
disruptive activity of GAGs on FCR3S1.2 rosettes [5]: slight effect only at high concentrations

Chondroitinase ABC
change in rosetting after treatment of whole cultures, FCR3S1 [2]: had only effect on the rosetting of the TM284 strain | decrease of binding capacity of treated uninfected RBC, TM 284 [6]: two fold decrease | change in rosetting after treatment of whole cultures, TM 284 [4]: had only effect on the rosetting of the TM284 strain | binding capacity of treated uninfected RBC, FCR3S1 [7]: unaffected

chondroitin sulfate
sensitivity of FCR3S1 rosettes to the compound [1]: little or no effect | inhibition of DBL-1-GST binding to heparin-sepharose [8]: but not with chondroitin sulfate | sensitivity of TM 284 rosettes to the compound [9]: relatively higher sensitivity | relative effectiveness as rosette disrupter on the whole collection of wild isolates [10]: the least effective

chondroitin sulfate A
disruptive activity of GAGs on FCR3S1.2 rosettes [5]: neither chondroitin sulfate A, keratan sulfate, nor hyaluronic acid had any effect

chymotrypsin
change in rosetting after treatment of whole cultures, FCR3S1 [2]: rosetting was abolished completely | change in rosetting after treatment of whole cultures, TM 284 [4]: rosetting was abolished completely

dermatan sulfate
sensitivity of FCR3S1 rosettes to the compound [1]: little or no effect | sensitivity of TM 284 rosettes to the compound [9]: relatively higher sensitivity | relative effectiveness as rosette disrupter on the whole collection of wild isolates [10]: intermediate position

dextran sulfate
rosette disruption of wild / fresh isolates [10]: much less effective that GAGs in most of the strains | relative effectiveness as rosette disrupter on the whole collection of wild isolates [10]: intermediate position

fucoidan
rosette disruption of wild / fresh isolates [10]: strong rosette disrupter; also recorded: disrupted rosettes of almost all fresh isolates | relative effectiveness as rosette disrupter on the whole collection of wild isolates [10]: most effective rosette disrupter for most isolates

heparan sulfate
sensitivity of FCR3S1 rosettes to the compound [1]: high sensitivity | inhibition of DBL-1-GST binding to heparin-sepharose [8]: dose-dependently be competed out | disruptive activity of GAGs on FCR3S1.2 rosettes [5]: sensitive | sensitivity of TM 284 rosettes to the compound [9]: less sensitive | inhibition of DBL-1-GST binding to erythrocytes [11]: could be inhibited with small amounts | relative effectiveness as rosette disrupter on the whole collection of wild isolates [10]: intermediate position

heparin
sensitivity of FCR3S1 rosettes to the compound [1]: high sensitivity | efficiency of heparin chain relative to disaccharide I-S, weight basis ([1]; heparin 1 mg/ml vs I-S 30 mM): around 20 fold | efficiency of heparin chain relative to disaccharide I-S, molar basis ([1]; heparin ≃70 μM vs I-S 30 mM): around 500 fold | inhibition of DBL-1-GST binding to heparin-sepharose [8]: dose-dependently be competed out | fresh isolates whose rosettes were disrupted ([12]; 54 fresh isolates): 50% | number of fresh isolates whose rosettes were disrupted ([12]; out of 54 fresh isolates): 27 | disruptive activity of GAGs on FCR3S1.2 rosettes [5]: sensitive | rosettes disrupted ([9]; at 1 mg/ml (not shown)): 80% | sensitivity of TM 284 rosettes to the compound [9]: less sensitive | inhibition of DBL-1-GST binding to erythrocytes [11]: could be inhibited with small amounts | relative effectiveness as rosette disrupter on the whole collection of wild isolates [10]: intermediate position

hyaluronic acid
disruptive activity of GAGs on FCR3S1.2 rosettes [5]: neither chondroitin sulfate A, keratan sulfate, nor hyaluronic acid had any effect

keratan sulfate
disruptive activity of GAGs on FCR3S1.2 rosettes [5]: neither chondroitin sulfate A, keratan sulfate, nor hyaluronic acid had any effect

trypsin
change in rosetting after treatment of whole cultures, FCR3S1 [2]: rosetting was abolished completely | change in rosetting after treatment of whole cultures, TM 284 [4]: rosetting was abolished completely
